Series [1] deals with T1, detergent-solubilized EmrE (Escherichia coli, UniProt P23895).
T1 construct: full-length EmrE (110 aa), organic-extracted, solubilized in DDM, purified from E. coli BL21(DE3); unfused
Nature of the series: tryptophan fluorescence quenching titration (excitation […] nm). Type of series: binding.

Series [2] deals with the molecule itself. Nature of the series: SEC; detergent-free fusion proteins after affinity purification; SEC buffer 20 mM Tris pH 7.5, 50 mM NaCl, 1 mM EDTA pH 8.0; column calibrated with Bio-Rad standards; self-association of the fusion. (In general: In gel filtration, larger molecules generally elute earlier.)

“And” between values parts separate entries of the source, which are not always exact repeats. Equal values may be shown once. Read-outs that look alike come from different tables or passages of the source.

One may read the Kd as the constant that tells how readily two partners part at equilibrium. Consider `c1ccc([P+](c2ccccc2)(c2ccccc2)c2ccccc2)cc1` [tetraphenylphosphonium], for which, in series [1] (20 mM Tris-HCl pH 7.5, 150 mM NaCl, 0.08% w/v DDM, 10 μM protein, room temperature), the Kd entry is listed as “higher for ApoAI*-solubilized EmrE compared with its detergent-solubilized counterpart”.

In the case of `CC[n+]1c(-c2ccccc2)c2cc(N)ccc2c2ccc(N)cc21` [ethidium bromide], the dissociation constant (Kd) in series [1] (read-out: Kd) is 5.4 ± 0.47 µM.

B1: ΔspMBP-EmrE-ApoAI* (other)
chain: MNPYIYLGGAILAEVIGTTLMKFSEGFTRLWPSVGTIICYCASFWLLAQTLAYIPTGIAYAIWSGVGIVLISLLSWGFFGQRLDLPAIIGMMLICAGVLIINLLSRSTPHLKLLDNWDSVTSTFSKLREQLGPVTQEFWDNLEKETEGLRQEMSKDLEEVKAKVQPYLDDFQKKWQEEMELYRQKVEPLRAELQEGARQKLHELQEKLSPLGEEMRDRARAHVDALRTHLAPYSDELRQRLAARLEALKENGGARLAEYHAKATEHLSTLSEKAKPALEDLRQGLLPVLESFKVSFLSALEEYTKKLNTQ
As usually defined, the stoichiometry N is a count of units in the complex or per binding partner. For the molecule B1, the “stoichiometry N” value in series [2] was 2 and 4.

B2: ΔspMBP-cyt b5-ApoAI* (other)
chain: MAEQSDEAVKYYTLEEIQKHNHSKSTWLILHHKVYDLTKFLEEHPGGEEVLREQAGGDATENFEDVGHSTDAREMSKTFIIGELHPDDRPKLNKPPETLITTIDSSSSWWTNWVIPAISAVAVALMYRLYMAEDLKLLDNWDSVTSTFSKLREQLGPVTQEFWDNLEKETEGLRQEMSKDLEEVKAKVQPYLDDFQKKWQEEMELYRQKVEPLRAELQEGARQKLHELQEKLSPLGEEMRDRARAHVDALRTHLAPYSDELRQRLAARLEALKENGGARLAEYHAKATEHLSTLSEKAKPALEDLRQGLLPVLESFKVSFLSALEEYTKKLNTQ
For B2, in series [2], the “stoichiometry N” value is 8 and 4.

(Values after publication PMC4403311, “Making water-soluble integral membrane proteins in vivo using an amphipathic protein fusion strategy” (Nature Communications, 2015).)
